This note sets out measurements from patent US20200197409A1, “HEPATITIS B VIRUS SURFACE ANTIGEN INHIBITOR” (FUJIAN COSUNTER PHARMACEUTICAL CO., LTD., priority 2017, published 2020).

In one assay the test system is HBV-DNA. As to the kind of experiment: HBV DNA content in HepG2.2.15 cells culture supernatant by real time-qPCR. It is filed as cell-based. To be noted: supernatant on the 8th day. How it is done: (§1) 2.1 Cell Line: HepG2.2.15 Cells
3.6 15 μL of the reaction mixture was added into each well of a 96-well PCR plate, followed by addition of 10 μL of sample DNA or HBV DNA standards into each well.
3.7 PCR reaction conditions: heating at 95° C. for 10 minutes, then denaturation at 95° C. for 15 seconds, extension at 60° C. for 1 minute, a total of 40 cycles.

For another assay, the system named is HBsAg. To be noted: read-out: HBsAg EC50; HepG2.2.15 cells, supernatant on the 8th day. How it is done:
The HBV DNA content in HepG2.2.15 cells culture supernatant was determined by real-time quantitative qPCR assay (real time-qPCR), and the HBV surface antigen content was determined by enzyme linked immunosorbent assay (ELISA). The inhibitory effect of the compound on HBV was evaluated by the EC50 value of the compound.
as §1
3.1 HepG2.2.15 cells (4×10^4 cells/well) were seeded into a 96-well plate and incubated overnight at 37° C. under 5% CO2.
3.2 On the 2nd day, the compound was diluted into 8 concentrations with 3-fold gradient. The compounds with different concentrations were added into the culture wells in duplicate wells. The final concentration of DMSO in the culture medium was 0.5%, 10 μM ETV was used as a 100%/inhibition control, and 0.5% DMSO was used as a 0% inhibition control.
3.3 On the 5th day, the culture medium was replaced with a fresh medium containing the compound.
3.4 On the 8th day, the culture medium in the culture well was collected, and a part of the sample was taken for ELISA to determine the content of hepatitis B virus S antigen, a part of the sample was taken to extract DNA with a high-throughput DNA purification kit (Qiagen-51162).
3.8 Determination of hepatitis B virus S antigen content by ELISA
50 μL of sample and standard sample were taken and added into a reaction plate respectively, followed by addition of 50 μL of enzyme conjugate into each well, the mixture was shaken and well-mixed, and placed in a bath at 37° C. for 60 minutes. The plate was then washed with washing solution 5 times, followed by addition of 50 μL of illuminating substrate into each well, the mixture was well-mixed and allowed to react at room temperature for 10 minutes in the dark. Chemiluminescence intensity was determined by a ELISA.
Calculation of the percentage of inhibition:% Inh.=(1−value of sample/value of DMSO control)×100
Calculation of EC50: The 50% inhibitory concentration (EC50) value of the compound on HBV was calculated by GraphPad Prism software.

In another assay the test system is HBV. As to the kind of experiment: Anti-HBV activity on the hepatitis B virus mouse model (AAV-HBV). It counts as in vivo, C57BL/6 mice. The following applies: 1 mg/kg, PO, QD. How it is done:
The AAV vector-mediated HBV infected mouse model is a fast and efficient HBV model. Using the high hepatotropism of the AAV vector, the recombinant adeno-associated type 8 virus carrying 1.3 copies of the HBV genome (rAAV8-1.3HBV) is injected into the tail vein of mice, which can efficiently introduce the carried 1.3 copy HBV genome into hepatocytes. Due to the characteristics of the AAV viral vector, the vector mediated by it can express for a long time. The AAV/HBV model can continuously replicate HBV DNA and express HBsAg and HBeAg in the liver of the mice.
The anti-HBV efficacy of the test compound in vivo was evaluated by determining the content of HBsAg in the serum of the mice after treatment with the test compound on AAV/HBV mouse mode.
C57BL/6 mice, 10% HP-f-CD as vehicle, reference compound TDF (Tenofovir), test compound, recombinant virus rAAVS-1.3HBV, main reagents of the experiment including QIAamp96 DNA kit and TaqMan® Universal PCR Master Mix, Hepatitis B Virus Surface Antigen Detection Kit, instruments including: centrifuge (Beckman Allegra X-15R), tissue grinder (QIAGEN-Tissue lyser II) and spectrophotometer (Thermo-NANODROP 1000).
a) All mice were orally administered on the 28th day after the virus injection, and the day was set as day 0. Submaxillary blood of all mice was collected for serum collection before administration. The mice were administered once a day for four weeks.
b) Submaxillary blood of all mice was collected for serum collection twice a week, the volume of the blood collected each time was approximately 100 μL.
c) On the 28th day, all mice were euthanized and the blood was collected from the heart for serum collection.
The content of HBsAg in the serum of the mice was determined by ELISA. The experimental procedure refers to the specification of HBsAg ELISA kit.
a) The anti-HBV activity of the test compound on AAV/HBV mice model was evaluated by determining the content of HBsAg in the plasma of the mice.

Regarding `CC[C@@H]1COc2cc(OCCCOC)c(Cl)cc2-c2cc(=O)c(C(=O)O)cn21` [Embodiment 1], the results for the EC50 in the assay on HBV-DNA and with HBsAg were 44.7 nM and 47.2 nM, respectively.

With `CC(=O)CCCOc1cc2c(cc1Cl)-c1cc(=O)c(C(=O)O)cn1[C@H](C(C)C)CO2` [Embodiment 22], the EC50 was 11.2 nM with HBV-DNA and 11.4 nM in the assay on HBsAg.

Consider `CC(C)[C@@H]1COc2cc(OCC3CC3)c(Cl)cc2-c2cc(=O)c(C(=O)O)cn21` [Embodiment 15], for which the half-maximal effective concentration (EC50) amounted to 8.66 nM in the assay on HBV-DNA and 10.4 nM in the assay with HBsAg.

Take `COCCCOc1cc2c(cc1Cl)-c1cc(=O)c(C(=O)O)cn1[C@H](C1CCCC1)CO2` [Embodiment 4]: the results for the EC50 with HBV-DNA and in the assay on HBsAg were 11.2 nM and 65.8 nM, respectively.

As for `COCCCOc1cc2c(cc1Cl)-c1cc(=O)c(C(=O)O)cn1[C@H](C(C)C)CO2` [Embodiment 2], the EC50 with HBV-DNA worked out at 8.75 nM; in the assay with HBsAg it was 6.59 nM.

Take `COCCCCOc1cc2c(cc1Cl)-c1cc(=O)c(C(=O)O)cn1[C@H](C(C)C)CO2` [Embodiment 19]: the half-maximal effective concentration (EC50) in the assay with HBV-DNA turned out to be 11.7 nM; with HBsAg, 8.15 nM.

As to `CC(C)OC(=O)OCOP(=O)(CO[C@H](C)Cn1cnc2c(N)ncnc21)OCOC(=O)OC(C)C.O=C(O)/C=C/C(=O)O` [TDF, reference compound], the “HBsAg content in the plasma of the mice” value in the assay with HBV (day 4) is 4.56 IU/mL; with HBV (day 7) it was 4.59 IU/mL; in the assay on HBV (day 11), 4.66 IU/mL; with HBV (day 14) it was 4.50 IU/mL; in the assay with HBV (day 18) it was 4.61 IU/mL; in the assay with HBV (day 21) it was 4.52 IU/mL. For the same compound, the “HBsAg content in the plasma of the mice” value in the assay with HBV (day 25) was determined as 4.33 IU/mL; with HBV (day 28), 4.34 IU/mL; in the assay with HBV (day −1), 4.59 IU/mL.

For the compound `CC(C)[C@@H]1COc2cc(OCCOCC(F)(F)F)c(Cl)cc2-c2cc(=O)c(C(=O)O)cn21` [Embodiment 13], the EC50 is 24.1 nM in the assay with HBV-DNA and 43.9 nM with HBsAg.

As to `CC[C@@H](C)C1COc2cc(OCCCOC)c(Cl)cc2-c2cc(=O)c(C(=O)O)cn21` (some centres unmarked) [Embodiment 5], the values for the EC50 with HBV-DNA and in the assay with HBsAg were 21.5 nM and 28.8 nM, respectively.

Regarding `CC(C)[C@@H]1COc2cc(OCCCOC(F)(F)F)c(Cl)cc2-c2cc(=O)c(C(=O)O)cn21` [Embodiment 21], the EC50 stood at 23.2 nM in the assay on HBV-DNA and 25.9 nM in the assay with HBsAg.

On to `CCSCCOc1cc2c(cc1Cl)-c1cc(=O)c(C(=O)O)cn1[C@H](C(C)C)CO2` [Embodiment 7], for which the EC50 amounted to 35.3 nM with HBV-DNA and 59.8 nM in the assay on HBsAg.

Take `CO/N=C/CCOc1cc2c(cc1Cl)-c1cc(=O)c(C(=O)O)cn1[C@H](C(C)C)CO2` [Embodiment 10]: the EC50 in the assay on HBV-DNA is 3.67 nM; with HBsAg it was 5.05 nM.

In the case of `CC(C)[C@@H]1COc2cc(OCCCN3CCOC3=O)c(Cl)cc2-c2cc(=O)c(C(=O)O)cn21` [Embodiment 20], the EC50 in the assay with HBV-DNA came out at 45 nM; with HBsAg, 41.9 nM.

As to `COCCCOc1cc2c(cc1Cl)-c1cc(=O)c(C(=O)O)cn1[C@H](C1CC1)CO2` [Embodiment 3], the EC50 in the assay on HBV-DNA was determined as 105 nM; with HBsAg it was 66.2 nM.

Consider `COCCCOc1cc2c(cc1Cl)-c1cc(=O)c(C(=O)O)cn1[C@H](C(C)(C)C)CO2` [Embodiment 24], for which the EC50 is 0.457 nM with HBV-DNA and 0.743 nM in the assay on HBsAg.

With `CCN(CC)C(=O)CCCOc1cc2c(cc1Cl)-c1cc(=O)c(C(=O)O)cn1[C@H](C(C)C)CO2` [Embodiment 12], the EC50 in the assay on HBV-DNA was found to be 19.1 nM; in the assay with HBsAg it was 25.5 nM.

In the case of `COCCCOc1cc2c(cc1C)-c1cc(=O)c(C(=O)O)cn1[C@H](C(C)(C)C)CO2` [Embodiment 27], the EC50 in the assay with HBV-DNA was determined as 1.1 nM; in the assay with HBsAg it was 2.51 nM.

On to `COCCCOc1cc2c(cc1C#N)-c1cc(=O)c(C(=O)O)cn1[C@H](C(C)C)CO2` [Embodiment 26], for which the EC50 in the assay on HBV-DNA was found to be 2.19 nM; in the assay on HBsAg, 3.33 nM.

Consider `COCCCOc1cc2c(cc1C1CC1)-c1cc(=O)c(C(=O)O)cn1[C@H](C(C)(C)C)CO2` [Embodiment 28], for which the EC50 with HBV-DNA is 0.508 nM; in the assay with HBsAg, 0.718 nM.

For `CNC(=O)OCCCOc1cc2c(cc1Cl)-c1cc(=O)c(C(=O)O)cn1[C@H](C(C)C)CO2` [Embodiment 11], the EC50 in the assay with HBV-DNA turned out to be 14.2 nM; in the assay on HBsAg it was 15.5 nM.

As for `CC(C)[C@@H]1COc2cc(OCC3CCOCC3)c(Cl)cc2-c2cc(=O)c(C(=O)O)cn21` [Embodiment 17], the EC50 in the assay on HBV-DNA came to 4.77 nM; in the assay with HBsAg, 5.05 nM.

`COc1cc2c(cc1Cl)-c1cc(=O)c(C(=O)O)cn1[C@H](C(C)C)CO2` [Embodiment 14]: the EC50 with HBV-DNA stood at 23.4 nM; in the assay with HBsAg, 22.8 nM.

For `COCCCOc1cc2c(cc1Br)-c1cc(=O)c(C(=O)O)cn1[C@H](C(C)(C)C)CO2` [Embodiment 25], the EC50 is less than 0.457 nM in the assay on HBV-DNA and 0.769 nM with HBsAg.

With `CC(C)[C@@H]1COc2cc(OCCCSCC(=O)O)c(Cl)cc2-c2cc(=O)c(C(=O)O)cn21` [Embodiment 9], the EC50 was 16.2 nM in the assay on HBV-DNA and 22.4 nM with HBsAg.

As to `CSCCOc1cc2c(cc1Cl)-c1cc(=O)c(C(=O)O)cn1[C@H](C(C)C)CO2` [Embodiment 8], the EC50 came out at 22.2 nM in the assay with HBV-DNA and 18 nM in the assay with HBsAg.

For the compound `COCCCOc1cc2c(cc1C(C)=O)-c1cc(=O)c(C(=O)O)cn1[C@H](C(C)C)CO2` [Embodiment 29], the values for the EC50 with HBV-DNA and in the assay on HBsAg were 0.507 nM and 1.34 nM, respectively.

Consider `COCCOc1cc2c(cc1Cl)-c1cc(=O)c(C(=O)O)cn1[C@H](C(C)C)CO2` [Embodiment 18], for which the EC50 in the assay on HBV-DNA turned out to be 34.7 nM; with HBsAg, 34.8 nM.

Consider `COC(=O)NCCCOc1cc2c(cc1Cl)-c1cc(=O)c(C(=O)O)cn1[C@H](C(C)C)CO2` [Embodiment 23], for which the EC50 in the assay on HBV-DNA is 24.1 nM; in the assay with HBsAg, 33.6 nM.

Take `CC(C)COc1cc2c(cc1Cl)-c1cc(=O)c(C(=O)O)cn1[C@H](C(C)C)CO2` [Embodiment 16]: the values for the EC50 in the assay with HBV-DNA and in the assay on HBsAg were 11.4 nM and 9.73 nM, respectively.
